#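 Cultured in 96-well plates, cells were exposed to test compound for 48 hours across five concentrations. GI50 = concentration required for 50% inhibition of growth.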 Activity calls are given as the source filed them. Cut-off read from the data, not from the text of the source: active = GI50 up to about 1.1 µM and inactive = higher.
# What was measured:
# Test in all cases: inhibition of tumour cell growth, NCI panel, 48 h
# [1] = system: 786-0
# [2] = system: A549
# [3] = system: CAKI-1
# [4] = system: COLO 205
# [5] = system: DMS-114
# [6] = system: EKVX
# [7] = system: HCC 2998
# [8] = system: HCT-116
# [9] = system: HOP-18
# [10] = system: HOP-62
# [11] = system: HT-29
# [12] = system: IGROV-1
# [13] = system: K562
# [14] = system: KM-20L2
# [15] = system: KM12
# [16] = system: M14
# [17] = system: M19-MEL
# [18] = system: MOLT-4
# [19] = system: Malme-3M
# [20] = system: NCI-H23
# [21] = system: OVCAR-3
# [22] = system: OVCAR-4
# [23] = system: OVCAR-5
# [24] = system: OVCAR-8
# [25] = system: RPMI-8226
# [26] = system: RXF 393
# [27] = system: SF-268
# [28] = system: SF-295
# [29] = system: SF-539
# [30] = system: SK-MEL-28
# [31] = system: SK-MEL-2
# [32] = system: SK-OV-3
# [33] = system: SNB-19
# [34] = system: SNB-78
# [35] = system: SR
# [36] = system: TK-10
# [37] = system: U-251
# [38] = system: UACC-62
# [39] = system: UO-31
# [40] = system: XF498
# [41] = system: ACHN
# [42] = system: CCRF-CEM
# [43] = system: DLD-1
# [44] = system: HCT-15
# [45] = system: HL-60
# [46] = system: HOP-92
# [47] = system: LOX IMVI
# [48] = system: NCI-H226
# [49] = system: NCI-H460
# [50] = system: NCI-H522
# [51] = system: SK-MEL-5
# [52] = system: SN12C
# [53] = system: SNB-75
# [54] = system: SW-620
# [55] = system: UACC-257
smiles,measurement,setting,value
C/C(=N\NC(N)=S)c1ccc(C2CCCCC2)cc1,GI50,[1],13.6 µM (inactive)
same,GI50,[2],43.4 µM (inactive)
same,GI50,[3],25.6 µM (inactive)
same,GI50,[4],12 µM (inactive)
same,GI50,[5],7.03 µM (inactive)
same,GI50,[6],71.4 µM (inactive)
same,GI50,[7],16.4 µM (inactive)
same,GI50,[8],14.4 µM (inactive)
same,GI50,[9],32.1 µM (inactive)
same,GI50,[10],37.2 µM (inactive)
same,GI50,[11],10.5 µM (inactive)
same,GI50,[12],12 µM (inactive)
same,GI50,[13],12.2 µM (inactive)
same,GI50,[14],14.7 µM (inactive)
same,GI50,[15],15.9 µM (inactive)
same,GI50,[16],9.59 µM (inactive)
same,GI50,[17],27.5 µM (inactive)
same,GI50,[18],4.58 µM (inactive)
same,GI50,[19],18.5 µM (inactive)
same,GI50,[20],16.9 µM (inactive)
same,GI50,[21],14.6 µM (inactive)
same,GI50,[22],14.4 µM (inactive)
same,GI50,[23],11.1 µM (inactive)
same,GI50,[24],15 µM (inactive)
same,GI50,[25],22.2 µM (inactive)
same,GI50,[26],12.6 µM (inactive)
same,GI50,[27],> 100 µM (inactive)
same,GI50,[28],4.56 µM (inactive)
same,GI50,[29],19.8 µM (inactive)
same,GI50,[30],16.6 µM (inactive)
same,GI50,[31],13.5 µM (inactive)
same,GI50,[32],32 µM (inactive)
same,GI50,[33],40.5 µM (inactive)
same,GI50,[34],25.9 µM (inactive)
same,GI50,[35],21.4 µM (inactive)
same,GI50,[36],26 µM (inactive)
same,GI50,[37],19 µM (inactive)
same,GI50,[38],14.2 µM (inactive)
same,GI50,[39],13 µM (inactive)
same,GI50,[40],0.113 µM (active)
CN1C(=O)C(=CN)C(=O)N(C)C1=O,GI50,[1],> 100 µM (inactive)
same,GI50,[2],> 100 µM (inactive)
same,GI50,[41],> 100 µM (inactive)
same,GI50,[3],> 100 µM (inactive)
same,GI50,[42],> 100 µM (inactive)
same,GI50,[43],> 100 µM (inactive)
same,GI50,[5],> 100 µM (inactive)
same,GI50,[6],> 100 µM (inactive)
same,GI50,[7],> 100 µM (inactive)
same,GI50,[44],> 100 µM
same,GI50,[45],> 100 µM (inactive)
same,GI50,[9],> 100 µM (inactive)
same,GI50,[46],> 100 µM (inactive)
same,GI50,[11],> 100 µM (inactive)
same,GI50,[13],> 100 µM (inactive)
same,GI50,[14],> 100 µM (inactive)
same,GI50,[15],> 100 µM (inactive)
same,GI50,[47],> 100 µM (inactive)
same,GI50,[16],> 100 µM (inactive)
same,GI50,[17],> 100 µM (inactive)
same,GI50,[18],> 100 µM (inactive)
same,GI50,[19],> 100 µM (inactive)
same,GI50,[48],> 100 µM (inactive)
same,GI50,[20],> 100 µM (inactive)
same,GI50,[49],> 100 µM (inactive)
same,GI50,[50],> 100 µM (inactive)
same,GI50,[21],> 100 µM (inactive)
same,GI50,[22],> 100 µM (inactive)
same,GI50,[23],> 100 µM (inactive)
same,GI50,[24],> 100 µM (inactive)
same,GI50,[25],> 100 µM (inactive)
same,GI50,[26],> 100 µM (inactive)
same,GI50,[27],> 100 µM (inactive)
same,GI50,[28],> 100 µM (inactive)
same,GI50,[30],> 100 µM (inactive)
same,GI50,[31],> 100 µM (inactive)
same,GI50,[51],> 100 µM (inactive)
same,GI50,[52],> 100 µM (inactive)
same,GI50,[33],> 100 µM (inactive)
same,GI50,[53],> 100 µM (inactive)
same,GI50,[34],> 100 µM (inactive)
same,GI50,[35],> 100 µM (inactive)
same,GI50,[54],> 100 µM (inactive)
same,GI50,[36],> 100 µM (inactive)
same,GI50,[37],> 100 µM (inactive)
same,GI50,[55],> 100 µM (inactive)
same,GI50,[39],> 100 µM (inactive)
same,GI50,[40],> 100 µM (inactive)

# — ChEMBL document CHEMBL1201862, “PubChem BioAssay data set” (2004)
